The values that follow come from patent EP4685136A1, “AMINO LIPID, AND LIPID NANOPARTICLES AND USE THEREOF” (Shenzhen MagicRNA Biotechnology Co., Ltd., priority 2023, dated 2024).

The subject of data set [1] is primary BMDC cells. Nature of the data set: Transfection of Luc mRNA lipid nanoparticles on primary BMDC cells (ONE-Glo luciferase readout). It is filed as cell-based, C57BL/6 mice. Particulars: expression intensity of Luc mRNA on BMDCs; 10 µL LNP per well, 20,000 cells per well, 12 hours. As for the experimental part:
Animal preparation: 6-week-old female C57BL/6 mice weighing about 20 g were selected and raised in an SPF-grade feeding room. Animal experiments were conducted strictly in accordance with the guidelines of the National Institutes of Health and animal ethics requirements.
Cell acquisition: C57BL/6 mice were sacrificed by cervical dislocation and immersed in 75% alcohol for 5 minutes for disinfection. The thigh and tibia of the mice were dissected and the attached muscles were removed to expose the bone. The bone marrow in the tibia was blown out with a 1 mL syringe filled with PBS. The obtained bone marrow was dispersed by blowing and filtered through a 50 µm filter mesh to remove impurities. Red blood cell lysis solution (3-4 mL) was added to the obtained filtrate and allowed to stand for 5 minutes. Then, the supernatant was removed by centrifugation at 800 g for 5 minutes. The obtained cells were placed in 1640 culture medium (containing 10% fetal bovine serum, 20 ng/mL GMCSF, 10 ng/mL IL4) for being resuspended, and inoculated into 6-well plates at a density of 100,000 cells/mL of culture medium. The plates were placed in a cell culture incubator containing 5% CO2 at 37°C, and the medium was half-changed every 2 days. On the seventh day, the suspended cells and loosely adherent cells were collected and inoculated into 96-well all-white ELISA plates at a density of 20,000 cells per well, with a culture medium volume of 100 µL.
Cell transfection: the lipid nanoparticles encapsulating luciferase mRNA were added to a 96-well all-white ELISA plate with spreaded primary cells, and the volume of mRNA lipid nanoparticles added to each well was controlled to be 10 µL. Then, the plate was placed in an incubator with 5% CO2 concentration at 37°C for 12 hours.
Transfection efficiency detection: 20 µL of substrate ONE-Glo™ Luciferase was added to each well of a 96-well all-white ELISA plate, and the assay was performed using a multifunctional microplate reader (Biorek SynergyH1) after 1 min. The expression intensity of Luc mRNA transfected on BMDCs by lipid nanoparticles (LNPs) composed of representative amino lipid compounds is shown in Table 2, with DLin-MC3 and SM0102 as controls. Table 2 Expression intensity of transfection of representative amino lipid compounds on BMDCs

A short description of data set [2]: Particle size and PDI of Luc-mRNA lipid nanoparticles (Nano-ZS ZEN3600, Malvern). In kind it is physicochemical. Particulars: LNP of amino lipid:DSPC:cholesterol:DMG-PEG2000 47.5:10:41:1.5 with Luc-mRNA; lipid to mRNA mass ratio about 40:1. As for the experimental part: (§1) The amino lipid compound of the present invention (or DLin-MC3 or SM-102 (both purchased from AVT (Shanghai) Pharmaceutical Technology Co., Ltd.)), phospholipid lipid (DSPC), cholesterol, and PEGylated lipid (DMG-PEG2000) were mixed and dissolved in anhydrous ethanol at a molar ratio of 47.5:10:41:1.5. The resulting ethanol solution and citric acid buffer (50 mM, pH = 4.0) dissolved with Luc-mRNA (TriLink) were mixed in a microfluidic chip at a volume ratio of 1:3 using a microfluidic preparation system to prepare a crude solution of lipid nanoparticles, which was then dialyzed in 1X PBS at 4°C for 6 h using a dialysis cassette (Fisher, MWCO 20,000). The product was filtered through a 0.22 µm microporous filter membrane before use. The mass ratio of the amino lipid compound to luciferase mRNA (Luc mRNA) was about 40:1.
The particle size and PDI (polydispersity index) of the prepared lipid nanoparticles were measured by Nano-ZSZEN3600 (Malvern). 20 µL of lipid nanoparticle (LNP) solution was taken for particle size measurement, and cycled three times with each cycle for 30 s.

Data set [3] can be described thus: Encapsulation efficiency of Luc-mRNA lipid nanoparticles (Quant-iT RiboGreen RNA Kit). In kind it is physicochemical. Conditions: LNP of amino lipid:DSPC:cholesterol:DMG-PEG2000 47.5:10:41:1.5 with Luc-mRNA; lipid to mRNA mass ratio about 40:1. As for the experimental part: as §1
The encapsulation efficiency was determined according to the standard procedure of the Quant-iT RiboGreen RNA Kit. Table 1 Characterization data of LNPs prepared using representative amino lipid compounds

Structures are written as SMILES.

As for `CCCCCCC(COC(=O)C(CCCCC)CCCCC)OC(=O)CCCCCN(CCCO)CCCCCC(=O)OC(CCCCCC)COC(=O)C(CCCCC)CCCCC` (stereo not drawn) [E8CA5B6O3], in data set [1], the Luminescence intensity turned out to be 2.3E+05. Also, in data set [2], the “Average particle size (nm)” value is on record as 69 nm and the PDI was determined as 0.06. Besides, the “Encapsulation efficiency (%)” value in data set [3] came out at 95.8%.
With `CCCCCCC(COC(=O)CCCCC)OC(=O)CCCCCN(CCCCCC(=O)OC(CCCCCC)COC(=O)CCCCC)CCCOC(=O)CCCCCCN(C)C` (stereo not drawn) [E8LA6B6O3A6], in data set [1], the Luminescence intensity is reported as 2.8E+05. Further, in data set [2], the “Average particle size (nm)” value turned out to be 108 nm and the PDI came out at 0.07. Further, in data set [3], the “Encapsulation efficiency (%)” value is given as 97.6%.
On to `CCCCCCCCCCCC(=O)OCC(CCCCCC)OC(=O)CCCCCN(CCCO)CCCCCC(=O)OC(CCCCCC)COC(=O)CCCCCCCCCCC` (stereo not drawn) [E8LA12B6O3], for which, in data set [2], the “Average particle size (nm)” value is on record as 72 nm and the PDI stood at 0.09. The “Encapsulation efficiency (%)” value in data set [3] came to 95.67%.
Regarding `CCCCCCCCCCC(COC(=O)CCCCC)OC(=O)CCCCCN(CCCCCC(=O)OC(CCCCCCCCCC)COC(=O)CCCCC)CCCOC(=O)CCN1CCN(C)CC1` (stereo not drawn) [E12LA6B6O3A2], the Luminescence intensity in data set [1] is reported as 4.0E+05.
Take `CCCCCCCCCCC(COC(=O)CCCCC)OC(=O)CCCCCN(CCCCCC(=O)OC(CCCCCCCCCC)COC(=O)CCCCC)CCCOC(=O)CCCN1CCN(C)CC1` (stereo not drawn) [E12LA6B6O3A3]: in data set [2], the “Average particle size (nm)” value was found to be 53 nm and the PDI is 0.07. Moreover, the “Encapsulation efficiency (%)” value in data set [3] came to 94.6%.
Take `CCCCCCCCCCC(COC(=O)CCCCC)OC(=O)CCCCCN(CCCCCC(=O)OC(CCCCCCCCCC)COC(=O)CCCCC)CCCOC(=O)CCN(C)C` (stereo not drawn) [E12LA6B6O3A4]: in data set [2], the “Average particle size (nm)” value came to 80 nm and the PDI turned out to be 0.03. In addition, the “Encapsulation efficiency (%)” value in data set [3] turned out to be 90.7%.
Consider `CCCCCCCCCCC(COC(=O)CCCCC)OC(=O)CCCCCN(CCCCCC(=O)OC(CCCCCCCCCC)COC(=O)CCCCC)CCCOC(=O)CCCCN(C)C` (stereo not drawn) [E12LA6B6O3A5], for which, in data set [1], the Luminescence intensity was 1.5 E+05. In data set [2], the “Average particle size (nm)” value was 117 nm and the PDI is reported as 0.08. Also, the “Encapsulation efficiency (%)” value in data set [3] worked out at 97.8%.
In the same order, the values of `CCCCCCCCCCC(COC(=O)CCCCC)OC(=O)CCCCCN(CCCCCC(=O)OC(CCCCCCCCCC)COC(=O)CCCCC)CCCOC(=O)C1CCN(C)CC1` (stereo not drawn) [E12LA6B6O3A7] are 7.3 E+04, 110 nm, 0.05 and 96.5%.
In the same order, the values of `CCCCCCCCCCC(COC(=O)CCCCC)OC(=O)CCCCCN(CCCCCC(=O)OC(CCCCCCCCCC)COC(=O)CCCCC)CCCOC(=O)CCN1CCCCC1` (stereo not drawn) [E12LA6B6O3A8] are 1.9 E+05, 124 nm, 0.06 and 95.3%.
On to `CCCCCCCCCCC(COC(=O)CCCCC)OC(=O)CCCCCN(CCCCC)CCCCCC(=O)OC(CCCCCCCCCC)COC(=O)CCCCC` (stereo not drawn) [E12LA6B6O9], for which the Luminescence intensity in data set [1] is recorded as 2.2 E+05. In addition, in data set [2], the “Average particle size (nm)” value was 95 nm and the PDI came to 0.11. For the same compound, the “Encapsulation efficiency (%)” value in data set [3] stood at 93.2%.
In the same order, the values of `CCCCCCCCCCC(COC(=O)CCCCC)OC(=O)CCCCCN(CCCCCC(=O)OC(CCCCCCCCCC)COC(=O)CCCCC)CCCN(C)C` (stereo not drawn) [E12LA6B6O12] are 4.9 E+04, 97 nm, 0.05 and 97.6%.
As for `CCCCCCCCCCC(COC(=O)CCCCC)OC(=O)CCCCCN(CCCCCC(=O)OC(CCCCCCCCCC)COC(=O)CCCCC)CCN1CCCCC1` (stereo not drawn) [E12LA6B6O13], in data set [2], the “Average particle size (nm)” value worked out at 83 nm and the PDI is 0.01. The “Encapsulation efficiency (%)” value in data set [3] is on record as 94.4%.
`CCCCCCCCCCC(COC(=O)CCCCC)OC(=O)CCCCCN(CCCCCC(=O)OC(CCCCCCCCCC)COC(=O)CCCCC)CCN1CCC(O)CC1` (stereo not drawn) [E12LA6B6O15]: in data set [2], the “Average particle size (nm)” value is recorded as 90 nm and the PDI came out at 0.12. The “Encapsulation efficiency (%)” value in data set [3] is 95.2%.
`CCCCCCCCCCCC(=O)OCC(CCCCCCCCCC)OC(=O)CCCCCN(CCCCCC(=O)OC(CCCCCCCCCC)COC(=O)CCCCCCCCCCC)CCCNC(=O)CCCN(C)C` (stereo not drawn) [E12LA12B6O3A11]: in data set [1], the Luminescence intensity turned out to be 1.4E+05. Moreover, in data set [2], the “Average particle size (nm)” value amounted to 132 nm and the PDI amounted to 0.09. Besides, the “Encapsulation efficiency (%)” value in data set [3] worked out at 95.6%.
Turning to `CCCCCCCCCCCC(=O)OCC(CCCCCCCCCC)OC(=O)CCCCCN(CCCO)CCCCCC(=O)OC(CCCCCCCCCC)COC(=O)CCCCCCCCCCC` (stereo not drawn) [E12LA12B6O3], in data set [1], the Luminescence intensity was 4.1E+05. Moreover, in data set [2], the “Average particle size (nm)” value is given as 73 nm and the PDI is on record as 0.09. Further, the “Encapsulation efficiency (%)” value in data set [3] stood at 97.5%.
In the same order, the values of `CCCCCCCCCCCC(=O)OCC(CCCCCCCCCC)OC(=O)CCCCCN(CCCCCC(=O)OC(CCCCCCCCCC)COC(=O)CCCCCCCCCCC)CCCC(=O)OCCCN(C)C` (stereo not drawn) [E12LA12B6O30A9] are 2.7 E+05, 121 nm, 0.14 and 92.4%.
Turning to `CCCCCCCCCCCC(=O)OCC(CCCCCCCCCC)OC(=O)CCCCCN(CCCCCC(=O)OC(CCCCCCCCCC)COC(=O)CCCCCCCCCCC)CCCC(=O)NCCCN(C)C` (stereo not drawn) [E12LA12B6O30A10], the Luminescence intensity in data set [1] amounted to 4.1E+05. Also, in data set [2], the “Average particle size (nm)” value is listed as 117 nm and the PDI is on record as 0.08. Also, in data set [3], the “Encapsulation efficiency (%)” value was 91.8%.
As for `CCCCCCCCCCCC(=O)OCC(CCCCCCCCCC)OC(=O)CCCCCN(CCCCCC(=O)OC(CCCCCCCCCC)COC(=O)CCCCCCCCCCC)CCCC(=O)O` (stereo not drawn) [E12LA12B6O30], in data set [2], the “Average particle size (nm)” value worked out at 127 nm and the PDI came out at 0.03. Moreover, the “Encapsulation efficiency (%)” value in data set [3] came to 98.2%.
Regarding `CCCCCCCCCCCC(=O)OCC(CCCCCCCCCC)OC(=O)CCCCCN(CCCC#N)CCCCCC(=O)OC(CCCCCCCCCC)COC(=O)CCCCCCCCCCC` (stereo not drawn) [E12LA12B6O31], the Luminescence intensity in data set [1] is given as 9.6 E+04. In data set [2], the “Average particle size (nm)” value came out at 130 nm and the PDI was found to be 0.04. In addition, the “Encapsulation efficiency (%)” value in data set [3] stood at 98.4%.
Consider `CCCCCCCCCCC(CNC(=O)CCCCC)NC(=O)CCCCCN(CCCO)CCCCCC(=O)NC(CCCCCCCCCC)CNC(=O)CCCCC` (stereo not drawn) [E12N2LA6B6O3], for which, in data set [2], the “Average particle size (nm)” value was 168 nm and the PDI stood at 0.06. Besides, the “Encapsulation efficiency (%)” value in data set [3] was determined as 90.3%.
Turning to `CCCCCCCCCCC(CCCOC(=O)CCCCC)OC(=O)CCCCCN(CCCO)CCCCCC(=O)OC(CCCCCCCCCC)CCCOC(=O)CCCCC` (stereo not drawn) [K4LA6B6O3], in data set [1], the Luminescence intensity is listed as 4.9 E+05. In data set [2], the “Average particle size (nm)” value stood at 120 nm and the PDI is on record as 0.06. Moreover, in data set [3], the “Encapsulation efficiency (%)” value turned out to be 98.9%.
The matching figures for `CCCCCCCCCCC(CCCCOC(=O)CCCCC)OC(=O)CCCCCN(CCCO)CCCCCC(=O)OC(CCCCCCCCCC)CCCCOC(=O)CCCCC` (stereo not drawn) [K5LA6B6O3]: 4.8E+05, 106 nm, 0.03 and 96.2%.
